Test results published in publication PMC4848641, “The Scorpion Toxin Analogue BmKTX-D33H as a Potential Kv1.3 Channel-Selective Immunomodulator for Autoimmune Diseases” (Toxins, 2016).
“Also recorded” adds a separate entry of the source. Where a SMILES comes first, the peptide text is derived from it. Bridges are numbered along the chain shown (N, C = ends).

Columns and labels:
Jurkat cells [1] = type: cell-based; settings: 48 h post-stimulation with 100 ng/mL PMA and 1 mM Ionmycin; CellTiter 96 AQueous One Solution, 490 nm
Description: (§1) Jurkat E6-1 cells were obtained from the American Tissue Culture Collection (ATCC, Manassas, VA, USA) and cultured in RPMI-1640 supplied with 10% fetal bovine serum (FBS).
(§2) Peripheral blood (PB) obtained from four healthy volunteers was approved by the Ethics Committee of the College of Life Sciences in Wuhan University (Permit number: ECCLS20120076, approved at 3 May 2012). Ficoll gradients were used to isolate mononuclear cells from PB. The CD3^+ T cells were then purified using EasySep Isolation Kit (StemCell Technologies, Vancouver, BC, Canada), and cultured at density of 5 × 10^5 cells per cm^2 in RPMI-1640 medium supplemented with 2 mM glutamine, and 10% FBS. All the T-cells were cultured at a temperature of 37 °C in a humidified 95% air and 5% CO2 atmosphere. The Jurkat cells were stimulated with 100 ng/ml phorbol ester (PMA) (Sigma-Aldrich, Munich, Germany) and 1 mM Ionmycin (ION) (Sigma-Aldrich, Munich, Germany). […]
(§3) The Jurkat cells or peripheral blood CD3^+ cells were seeded in round-bottom plates (Corning-costar) at 5 × 10^5 cells per cm^2. […] The cells were cultured for 48 h, and cell proliferation was measured using CellTiter 96 AQueous One Solution Cell Proliferation Assay Kit (Promega, Madison, WI, USA) in accordance with the manufacturer’s guide. Absorbance was read at a wavelength of 490 nm.

[2] = test system: Kv1.3 channels on the freshly isolated CD3^+ T cells; assay: Whole-cell patch-clamp, Kv1.3 currents in freshly isolated human CD3^+ T cells; type: cell-based; settings: pH 7.4, means ± S.E. of at least three experiments
Experimental: (§4) Whole cell patch-clamp recordings of Kv1.3 channel were obtained from human T cells. Electrophysiological experiments of other assayed potassium channels were performed on HEK293 cells transfected with cDNA encoding Kv1.1, Kv1.2, Kv1.3, Kv7.1, Kv11.1, KCa2.2, KCa2.3, and KCa3.1 channels using TurboFect Reagent (ThermoSci., Waltham, MA, USA). The cDNAs were subcloned into the Xho I/Bam HI sites of pIRES2-EGFP, a bicistronic expression vector (Clontech, Mountain View, CA, USA) coexpressed with enhanced GFP. The constructs were verified by DNA sequencing. Currents were recorded on eGFP-expression positive cells one to three days post-transfection. Electrophysiological experiments were performed using protocols according to previously published references. Cells were bathed with mammalian Ringer’s solution: 5 mM KCl, 140 mM NaCl, 2 mM CaCl2, 1 mM MgCl2, […], 10 mM D-glucose (adjusted to pH 7.4 with NaOH). A multichannel microperfusion system MPS-2 (INBIO Inc, Wuhan, China) was used to exchange the external recording bath solution. […] Membrane currents were measured with an EPC 10 patch clamp amplifier (HEKA Elektronik, Lambrecht/Pfalz, Germany) interfaced to a computer running acquisition and analysis software (Pulse, v8.80, HEKA Elektronik, Lambrecht/Pfalz, Germany). […]

Lewis rats = assay: Active delayed-type hypersensitivity (DTH), ear swelling; type: in vivo; settings: female Lewis rats; 100 μg/kg, single subcutaneous injection at ovalbumin challenge; 4, 6, and 24 h after challenge; vs vehicle control
Experimental: The animal trial was approved by the Animal Use and Care Committee of the Wuhan University. Female Lewis rats (9–10 weeks of age) were purchased from Charles River Laboratories and housed under pathogen-free conditions. Active DTH was induced as describe previously by immunizing rats against antigen of ovalbumin (Sigma-Aldrich, Munich, Germany) emulsified with complete Freund’s adjuvant (Sigma-Aldrich, Munich, Germany). The emulsion was injected subcutaneously into Lewis rats in order to prime the immune system and develop memory T cells. Seven days later, the rats were challenged again with ovalbumin (20 μg in 20 μL of saline solution) in the pinna of one ear (challenged ear). The other side of ear received saline solution as challenge control. Rats in control group received a single subcutaneous injection of 0.5 mL vehicle (saline solution) in the scruff of the neck, at the time of second-challenge. Whereas, rats in drug-treatment group received 100 μg/kg BmKTX-D33H (in 0.5 mL vehicle) administrated using the same method. The change for thickness of ear (at 4, 6, and 24 h post-challenge) was measured as an indication of the inflammatory reaction and DTH severity.

Kv1.1 = assay: Whole-cell patch-clamp, Kv1.1 channel currents (transfected HEK293 cells); type: cell-based; settings: 1 μM, −80 mV to +50 mV, pH 7.4, means ± S.E. of at least three experiments
Experimental: as §4

CD3^+ T cells [3] = type: cell-based; settings: human CD3^+ T cells, anti-CD3/CD28 beads, 48 h; CellTiter 96 AQueous One Solution, 490 nm
Experimental: Peripheral blood (PB) obtained from four healthy volunteers was approved by the Ethics Committee of the College of Life Sciences in Wuhan University (Permit number: ECCLS20120076, approved at 3 May 2012). Ficoll gradients were used to isolate mononuclear cells from PB. The CD3^+ T cells were then purified using EasySep Isolation Kit (StemCell Technologies, Vancouver, BC, Canada), and cultured at density of 5 × 10^5 cells per cm^2 in RPMI-1640 medium supplemented with 2 mM glutamine, and 10% FBS. All the T-cells were cultured at a temperature of 37 °C in a humidified 95% air and 5% CO2 atmosphere. The Jurkat cells were stimulated with 100 ng/ml phorbol ester (PMA) (Sigma-Aldrich, Munich, Germany) and […] Ionmycin (ION) (Sigma-Aldrich, Munich, Germany). The CD3^+ T cells were stimulated with anti-CD3/CD28 antibodies beads (Life Technologies, Waltham, MA, USA). BmKTX-D33H (ranged from 0.1 to 100 nM) was added for 1 h prior to stimulation.
as §3

Kv1.7 = assay: Whole-cell patch-clamp, Kv1.7 (Kv7.1 in legend and methods) channel currents (transfected HEK293 cells); type: cell-based; settings: micromolar concentration (1 μM), pH 7.4
Experimental: as §4

Kv1.2 = assay: Whole-cell patch-clamp, Kv1.2 channel currents (transfected HEK293 cells); type: cell-based; settings: micromolar concentration (1 μM), pH 7.4
Experimental: as §4

Kv1.3 channel [4] = settings: ref [29], cited from earlier work
Description: The venomous scorpions, which have lived on earth for over 400 million years, rely on their venoms for their efficient defense and capture strategy. During their molecular evolution, scorpions produced hundreds of peptide-based toxins in their venoms, typically targeting ion channels with a high degree of molecular diversity. Accordingly, scorpion venoms have been considered as invaluable resources of ion channel inhibitors. […] Because ADWX-1 is a potent blocker of the […] channel (IC50 value of 0.6 nM), we further investigated the pharmacological profile of BmKTX-D33H. || The most remarkable feature of BmKTX-D33H is its sought-after selectivity towards the Kv1.3 channel. Indeed, improving the selectivity of scorpion toxins (especially Kv1.1 versus Kv1.3 channel subtypes) still remains a serious challenge. […] For ADWX-1 ...

Jurkat cells [5] = test system: Jurkat cells
Description: as §1
as §2, with “FBS.” for “FBS. All the T-cells were cultured at a temperature of 37 °C in a humidified 95% air and 5% CO2 atmosphere. The Jurkat cells were stimulated with 100 ng/ml phorbol ester (PMA) (Sigma-Aldrich, Munich, Germany) and 1 mM Ionmycin (ION) (Sigma-Aldrich, Munich, Germany).”
as §3
(§5) The IL-2, IFN-γ, and TNF-α levels in supernatants of stimulated cells were measured with ELISA kit (Dakewei, Shenzhen, China) following the manufacturer’s protocol. Absorbance was measured with an automatic plate reader at a wavelength of 450 nm with reference at 630 nm.

KCa2.2 = assay: Whole-cell patch-clamp, KCa2.2 channel currents (transfected HEK293 cells); type: cell-based; settings: micromolar concentration (1 μM), pH 7.4
Experimental: as §4

CD3^+ T cells [6] = settings: pre-incubation for 1 h before activation; anti-CD3/CD28 beads; ELISA
Experimental: as §2, with “atmosphere.” for “atmosphere. The Jurkat cells were stimulated with 100 ng/ml phorbol ester (PMA) (Sigma-Aldrich, Munich, Germany) and 1 mM Ionmycin (ION) (Sigma-Aldrich, Munich, Germany).”
as §3, §5

Kv11.1 = type: cell-based; settings: micromolar concentration (1 μM); HEK293 cells, patch-clamp, pH 7.4
Experimental: as §4

KCa2.3 = assay: Whole-cell patch-clamp, KCa2.3 channel currents (transfected HEK293 cells); type: cell-based; settings: micromolar concentration (1 μM), pH 7.4
Experimental: as §4

Kv1.3 channels = assay: Whole-cell patch-clamp, Kv1.3 channel currents; type: cell-based; settings: 10 pM, 200 ms depolarizing steps from holding potential −80 mV to +50 mV, pH 7.4, means ± S.E. of at least three experiments
Experimental: as §4

KCa3.1 = assay: Whole-cell patch-clamp, KCa3.1 channel currents (transfected HEK293 cells); type: cell-based; settings: micromolar concentration (1 μM), pH 7.4
Experimental: as §4

Kv1.3 channel [7] = assay: Selectivity towards the Kv1.3 channel over other K^+ channels; type: cell-based; settings: versus Kv1.1, Kv1.2, Kv1.7 (Kv7.1), Kv11.1, KCa2.2, KCa2.3, and KCa3.1
Experimental: as §4

## CC[C@H](C)[C@H](NC(=O)CNC(=O)[C@@H](N)C(C)C)C(=O)N[C@@H](CC(N)=O)C(=O)N[C@H](C(=O)N[C@@H](CCCCN)C(=O)N[C@H]1CSSC[C@@H]2NC(=O)[C@H](CCCCN)NC(=O)CNC(=O)[C@H](Cc3ccccc3)NC(=O)[C@H](CCCNC(=N)N)NC(=O)[C@H](CCSC)NC(=O)CNC(=O)[C@H](C)NC(=O)[C@H](CC(=O)O)NC(=O)[C@H](CCCCN)NC(=O)[C@@H]3CSSC[C@@H](C(=O)N[C@H](C(=O)N4CCC[C@H]4C(=O)N[C@@H](CCCCN)C(=O)O)[C@@H](C)O)NC(=O)[C@H](Cc4c[nH]cn4)NC(=O)[C@H](CSSC[C@H](NC(=O)[C@H](CCC(N)=O)NC(=O)CNC(=O)[C@H](CO)NC(=O)[C@H](Cc4c[nH]cn4)NC(=O)[C@H](CCCCN)NC1=O)C(=O)N[C@@H](CC(C)C)C(=O)N[C@@H](CCCCN)C(=O)N1CCC[C@H]1C(=O)N3)NC(=O)[C@H](CCCCN)NC(=O)CNC(=O)[C@H](CC(N)=O)NC(=O)[C@H]([C@@H](C)CC)NC2=O)C(C)C [BmKTX-D33H] (H-VGINVKCKHSGQCLKPCKDAGMRFGKCINGKCHCTPK-OH; disulfide 7-27, 13-32, 17-34; N-terminus and C-terminus assumed)
Jurkat cells [1]
  proliferation (growth) of Jurkat cells: significantly inhibited; also recorded: Proliferation of activated Jurkat cells was suppressed
[2]; 1 nM
  inhibition of Kv1.3 currents in CD3^+ T cells: 63.3% ± 2.9%
[2]; 10 nM
  inhibition of Kv1.3 currents in CD3^+ T cells: 90.7% ± 2.1%
Lewis rats
  DTH response, change of ear thickness: significantly improved the delayed-type hypersensitivity (DTH) responses; also recorded: changes of ear thickness were significantly reduced; also recorded: dramatically reduced the in vivo DTH responses
Kv1.1
  inhibition of Kv1.1 channel currents: about 46.6% ± 2.0%
CD3^+ T cells [3]
  proliferation (growth) of CD3^+ cells: suppressed the growth of CD3^+ cells; also recorded: Suppression of cytokine production and in vitro proliferation
Kv1.7
  sensitivity of Kv1.7 channel: much less sensitive
Kv1.2
  sensitivity of Kv1.2 channel: much less sensitive
Kv1.3 channel [4]; compared to wild-type BmKTX
  potency on the Kv1.3 channel compared with wild-type BmKTX: increased potency (as compared to wild-type BmKTX)
Kv1.3 channel [4]
  IC50: 0.0154 nM
Jurkat cells [5]; 33 h
  IC50: 23.9 ± 20.1 nM
Jurkat cells [5]; stimulated by PMA + ION, ELISA
  IL-2 expression of Jurkat cells: significantly reduced
KCa2.2
  sensitivity of KCa2.2 channel: much less sensitive
CD3^+ T cells [6]
  IFN-γ, TNF-α and IL-2 secretion of human T cells: robust dose-dependent reduction
Kv11.1
  sensitivity of Kv11.1 channel: much less sensitive
KCa2.3
  sensitivity of KCa2.3 channel: much less sensitive
Kv1.3 channels
  inhibition of Kv1.3 channel currents: 56.0% ± 2.0%
KCa3.1
  sensitivity of KCa3.1 channel: much less sensitive
Kv1.3 channel [7]
  selectivity towards the Kv1.3 channel as compared to other K^+ channels: more than 1000 fold
